From ChEMBL document CHEMBL3745618, “Identification of Non-nucleoside Human Ribonucleotide Reductase Modulators” (J Med Chem, 2015)
pIC50: −log10 of the molar value. Non-standard residues stand in square brackets, D forms with d. Residues, ends and D or L forms follow the SMILES beside them. Sar = CNCC(=O)O

Assays:
MDA-MB-231 [1] = experiment: Growth inhibition of human MDA-MB-231 cells assessed as 1-relative growth at 10 uM after 3 days by DNA dye binding assay; type: functional
MDA-MB-231 [2] = experiment: Growth inhibition of human MDA-MB-231 cells assessed as 1-relative growth at 1 uM after 3 days by DNA dye binding assay; type: functional
[3] = Growth inhibition of human HCT116 cells assessed as 1-relative growth at 10 uM after 3 days by DNA dye binding assay; type: functional, HCT-116
[4] = Growth inhibition of human HCT116 cells assessed as 1-relative growth at 1 uM after 3 days by DNA dye binding assay; type: functional, HCT-116
[5] = target: T1, Ribonucleoside-diphosphate reductase large subunit (Homo sapiens, UniProt P23921); experiment: Inhibition of human ribonucleotide reductase M1 subunit expressed in Escherichia coli BL21 (DE3) using 14C-ADP as substrate by liquid scintillation counting analysis
T1 sequence (P23921 whole entry): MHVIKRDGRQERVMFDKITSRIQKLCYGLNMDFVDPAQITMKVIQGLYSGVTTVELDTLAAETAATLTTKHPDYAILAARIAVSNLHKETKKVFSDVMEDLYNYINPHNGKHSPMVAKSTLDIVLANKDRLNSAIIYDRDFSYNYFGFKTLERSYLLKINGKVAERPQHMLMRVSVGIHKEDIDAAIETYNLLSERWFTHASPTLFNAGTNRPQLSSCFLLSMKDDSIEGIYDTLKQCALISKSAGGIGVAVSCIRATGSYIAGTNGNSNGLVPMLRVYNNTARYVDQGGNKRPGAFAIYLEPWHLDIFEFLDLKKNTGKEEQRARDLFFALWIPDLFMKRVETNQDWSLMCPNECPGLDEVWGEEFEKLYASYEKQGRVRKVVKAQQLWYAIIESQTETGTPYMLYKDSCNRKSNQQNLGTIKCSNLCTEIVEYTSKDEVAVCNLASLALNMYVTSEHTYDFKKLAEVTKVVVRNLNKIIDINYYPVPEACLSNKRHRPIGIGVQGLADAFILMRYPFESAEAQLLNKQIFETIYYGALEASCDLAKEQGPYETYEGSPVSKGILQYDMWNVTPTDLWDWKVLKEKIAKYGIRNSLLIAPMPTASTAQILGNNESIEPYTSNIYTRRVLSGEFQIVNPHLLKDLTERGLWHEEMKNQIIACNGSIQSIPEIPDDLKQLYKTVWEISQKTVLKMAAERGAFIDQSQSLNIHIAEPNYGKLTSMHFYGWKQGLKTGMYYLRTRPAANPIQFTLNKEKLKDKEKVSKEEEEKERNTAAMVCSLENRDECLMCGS

MDA-MB-231 [6] = experiment: Potentiation of gemcitabine-induced cytotoxicity against human MDA-MB-231 assessed as effective dose of gemcitabine at 2.5 uM after 72 hrs MTT assay (reference value: 0.92 uM); type: functional

pIC50 [5] | Compound | Activity (MDA-MB-231 [1]) | Activity (MDA-MB-231 [2]) | Activity [3] | Activity [4] | ED (MDA-MB-231 [6]) [µM]
 | CCOC(=O)C[C@@H](CC(=O)NCCN[C@H](C)c1ccc(O)c(C(=O)OC)c1)OC(C)=O | 0.096 | 0.098 | 0.096 | 0.098 | 
3.00 | NC(=O)NO [HYDROXYUREA] |  |  |  |  | 
 | CC(NCCCCCO)c1cc(OCc2ccccc2)cc(OCc2ccccc2)c1 (stereo unspecified) | 0.036 | -0.076 | 0.036 | -0.076 | 
 | CC(C)(NC(=O)CN1C(=O)c2ccccc2C1=O)C(=O)NCCCC[C@H](NC(=O)CC(O)(C(F)(F)F)C(F)(F)F)C(=O)O | 0.608 | 0.057 |  | 0.057 | 
 | OC(COc1ccc(OCC(O)CN2CCN(C3c4ccccc4-c4ccccc43)CC2)cc1)CN1CCN(C2c3ccccc3-c3ccccc32)CC1 (stereo unspecified) | 0.88 | -0.396 | 0.88 |  | 0.1
 | CCCCCCCCCCCCCCCC(=O)N[C@@H](CCCCN)C(=O)N[C@@H](CCCCN)C(=O)OC | -0.089 | -0.219 | -0.089 |  | 
 | CCCCCCCCCCCCCCNC(=O)[C@@H](N)CCN | 0.69 | 0.072 | 0.69 | 0.072 | 
 | CCC(C)(C)c1ccc(OCCCCNC(=O)c2cc(Oc3ccc([N+](=O)[O-])cc3)c3ccccc3c2O)c(C(C)(C)CC)c1 | 0.398 | 0.038 |  | 0.038 | 
 | CCCOc1ccc(C(=O)OCCN(CC)CC)cc1NS(=O)(=O)/C=C/c1ccccc1 | 0.043 | -0.033 | 0.043 | -0.033 | 
 | CNCC(=O)N[C@@H](CCCNC(=N)N)C(=O)N[C@H](C(=O)N[C@@H](Cc1ccc(O)cc1)C(=O)N[C@H](C(=O)N[C@@H](Cc1cnc[nH]1)C(=O)O)C(C)C)C(C)C (H-[Sar]RVYVH-OH) | 0.158 | 0.108 | 0.158 | 0.108 | 
 | CCOC(=O)C(NC(=O)CN[C@H]1CCCc2sccc21)C(=O)OCC | 0.531 | -0.199 |  |  | 
